Results published in patent US20240239738A1, “(S)-3-AMINO-4-(DIFLUOROMETHYLENE)CYCLOHEXENE AND CYCLOHEXANE CARBOXYLIC ACID AND USES THEREOF AS SELECTIVE INACTIVATORS OF HUMAN ORNITHINE AMINOTRANSFERASE (hOAT)” (Northwestern University, priority 2021, published 2024).
Like-named read-outs stand apart in the source and are kept apart here. One block for each compound: values may come before it.

Key:
in vivo PK profiles = settings: for Cmax: read-out: C0/Cmax; for Kp at 0.25 h: read-out: B/P ratio @0.25 h
hOAT [1] = target: T1, hOAT (Homo sapiens, UniProt P04181); settings: cited from earlier work
T1 construct: made in house
T1 sequence (P04181 with tags, fused parts or gaps): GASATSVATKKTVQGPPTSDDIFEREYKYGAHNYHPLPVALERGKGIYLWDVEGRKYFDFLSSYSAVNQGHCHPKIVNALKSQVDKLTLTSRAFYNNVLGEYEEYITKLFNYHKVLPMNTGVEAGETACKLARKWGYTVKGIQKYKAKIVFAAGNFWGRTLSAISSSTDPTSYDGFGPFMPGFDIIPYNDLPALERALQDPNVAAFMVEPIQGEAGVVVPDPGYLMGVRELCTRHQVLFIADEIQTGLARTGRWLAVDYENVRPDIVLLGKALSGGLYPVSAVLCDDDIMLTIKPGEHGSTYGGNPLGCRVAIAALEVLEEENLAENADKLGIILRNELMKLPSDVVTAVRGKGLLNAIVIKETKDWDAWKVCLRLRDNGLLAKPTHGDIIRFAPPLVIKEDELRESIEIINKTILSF

hOAT [2] = target: T1, hOAT; test: Partition ratio by titrating hOAT with inactivator; format: biochemical; settings: turnover number minus one
From the text: Usually, the partition ratio is used to determine the ratio of degradation and inactivation, calculated by titrating the enzyme with varying equivalents of inactivator. Ideally, a linear relationship (between enzyme activity remaining and equivalents of compounds) can be extrapolated to yield the exact equivalents (the intercept with the x-axis, turnover number) required to inactivate the enzyme completely. Since this obtained number includes the one molecule of inactivator required to inactivate one enzyme monomer, the partition ratio is the turnover number minus one. Therefore, the partition ratios of 5 and 14 were determined by titrating hOAT with varying equivalents of inactivators (FIG. 21). From this, we determined the partition ratio of 5 to be 4.9 and the partition ratio of 14 to be 0.6. The enlarged ring not only enhances the potency and selectivity against hOAT but also improves the efficiency of the inactivation.
The partition ratio was calculated using previous protocols.^6, 8-9

[3] = tested on: alanine aminotransferase (Ala-AT); test: Coupled enzyme assay, inhibition of Ala-AT; format: biochemical; settings: at high concentrations, up to 20 mM
Procedure: (§1) hOAT and PYCR1 were expressed, grown, and purified according to literature procedures.^3-4 GABA-AT was isolated from pig brains and purified according to a literature procedure.^5 Coupled enzyme assays for GABA-AT, hOAT, Ala-AT, and Asp-AT were carried out according to previous procedures.^6-7

GABA-AT = target: T2, GABA-AT (Sus scrofa, UniProt P80147); test: Coupled enzyme assay, time-dependent inactivation of GABA-AT; format: biochemical, pig
T2 construct: GABA-AT was isolated from pig brains and purified according to a literature procedure; from tissue; host or cells: pig brain
Procedure: as §1

hOAT [4] = target: T1, hOAT; test: Fluoride ion release on inactivation of hOAT; format: biochemical; settings: for F^− Release: enzyme 1.34 μM monomer; for Fluoride ions released per active site: excess of inactivator
From the text: Different equivalents of fluoride ions can be released in PLP and PMP turnover pathways. If PMP is formed in the turnover mechanism, it cannot be converted back to PLP in the absence of α-KG, which results in at most two equivalents of fluoride ion released (pathway a); more equivalents of fluoride ion would be released in the presence of α-KG if PMP is formed after the fluoride ion release step (pathway a1). If PLP is regenerated during the turnover mechanism, at least two equivalents of fluoride ions will be released in the absence of α-KG (pathway b), which should be close to the equivalents in the presence of α-KG. Based on the partition ratio and the confirmed inactivation mechanism for 14, the theoretical equivalents of fluoride ions, which are released per enzyme active site in different turnover pathways, can be calculated in the presence/absence of α-KG (Table 3). The concentration of released fluoride ions can be monitored by a fluoride ion-selective electrode. When OAT was inactivated with an excess of 14, 2.95 equivalents of fluoride ions were released in the presence of α-KG and 2.66 equivalents of fluoride ions were released in the absence of α-KG (Table 3).
The fluoride ion release assay was conducted using previous protocols.^2 The final concentration of hOAT in the sample was determined to be 61.7±4.1 ug/mL (monomer, 1.34±0.12 μM) via BSA assay and calculation of dilution. A calibration curve of voltage (V, mV) was generated from varying concentrations of NaF (F, μM) to get the equation: F^−=10^((V−181.4)/−54.21). For accurate detection of fluoride ion concentration, 2.0 μM of fluoride ion was added to each control and sample. The number of fluoride ions released per active site was calculated by the ratio of the fluoride ion release concentration and hOAT concentration.

hOAT [5] = target: T1, hOAT; test: Time-dependent dialysis (reactivation) of inhibited hOAT; format: biochemical; settings: hOAT partially or fully inhibited (0.6-2.0 equivalents of 14); up to 91 h of dialysis
Procedure: Previously, five-membered ring analogs 5 and 9 were identified as partially irreversible inhibitors of GABA-AT, with the formation of the tight-binding adducts.^29-30 Thus, time-dependent reactivation experiments of hOAT for cyclohexene analog 14 were carried out to determine if similar reversible components were also involved during the inactivation. After hOAT activity was partially or fully abolished by 0.6-2.0 equivalents of 14, aliquots at different time intervals were collected and assayed for the return of enzyme activity.
The dialysis experiment was conducted using previous protocols.^6, 8-9

[6] = tested on: aspartate aminotransferase (Asp-AT); test: Coupled enzyme assay, inhibition of Asp-AT; format: biochemical; settings: at high concentrations, up to 20 mM
Procedure: as §1

hOAT [7] = target: T1, hOAT; test: Coupled enzyme assay, time-dependent inactivation of hOAT; format: biochemical; settings: for Ki / kinact / kinact/KI: hOAT
Procedure: as §1

[8] = values marked b from the slope of kobs vs [I], read-out: kinact/KI (converted)

T2 sequence (P80147 29-500): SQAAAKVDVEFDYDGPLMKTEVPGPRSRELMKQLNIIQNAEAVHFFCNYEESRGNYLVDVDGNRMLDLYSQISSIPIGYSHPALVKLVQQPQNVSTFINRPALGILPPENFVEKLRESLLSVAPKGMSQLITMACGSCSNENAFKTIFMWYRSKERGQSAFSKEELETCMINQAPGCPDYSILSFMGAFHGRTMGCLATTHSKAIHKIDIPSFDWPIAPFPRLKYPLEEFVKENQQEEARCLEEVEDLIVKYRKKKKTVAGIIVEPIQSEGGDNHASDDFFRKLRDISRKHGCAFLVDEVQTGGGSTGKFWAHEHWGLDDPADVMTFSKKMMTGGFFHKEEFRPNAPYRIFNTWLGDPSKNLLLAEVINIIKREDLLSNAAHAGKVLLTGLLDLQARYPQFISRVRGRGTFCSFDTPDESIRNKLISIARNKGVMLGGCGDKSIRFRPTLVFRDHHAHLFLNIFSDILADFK

Compound: N[C@H]1C=C(C(=O)O)CC1=C(F)F [Compound 9, reference compound]
AUCinf (in vivo PK profiles; IV, 3 mg/kg): 0.6538 µg·h/mL
AUClast (in vivo PK profiles; IV, 3 mg/kg): 0.63412 µg·h/mL
C0/Cmax (in vivo PK profiles; IV, 3 mg/kg): 2.37608 µg/mL
CL (in vivo PK profiles; IV, 3 mg/kg): 4.589 L/h/kg
T1/2 (in vivo PK profiles; IV, 3 mg/kg): 30.6 min
VSS (in vivo PK profiles; IV, 3 mg/kg): 1.75 L/kg
% F (in vivo PK profiles; PO, 10 mg/kg): 42%
AUCinf (in vivo PK profiles; PO, 10 mg/kg): 1.0066 µg·h/mL
AUClast (in vivo PK profiles; PO, 10 mg/kg): 0.8812 µg·h/mL
C0/Cmax (in vivo PK profiles; PO, 10 mg/kg): 1.57574 µg/mL
Tmax (in vivo PK profiles; PO, 10 mg/kg): 15 min
kinact/KI (hOAT [1]; from ref 29): 127 M⁻¹ s⁻¹
Ki (hOAT [1]; from ref 40): 65 ± 10 µM
kinact/KI (hOAT [1]; from ref 40): 14.5 M⁻¹ s⁻¹

Compound: N[C@H]1C[C@@H](C(=O)O)CC1=C(F)F [Compound 5, reference compound]
return of enzyme activity on dialysis (hOAT [5]): fully irreversible inhibitor

Compound: N[C@H]1C[C@H](C(=O)O)CCC1=C(F)F [Compound 13, (1R,3S)-3-Amino-4-(difluoromethylene)cyclohexane-1-carboxylic acid]
Ki (GABA-AT): > 13100 µM
kinact (GABA-AT): > 0.00317 s⁻¹
kinact/KI (GABA-AT; [8]): 0.25 M⁻¹ s⁻¹
Ki (hOAT [7]): 1480 ± 210 µM
kinact (hOAT [7]): 0.0015 s⁻¹
kinact/KI (hOAT [7]): 1.07 M⁻¹ s⁻¹

Compound: N[C@H]1CC(C(=O)O)=CCC1=C(F)F [Compound 15, (S)-5-Amino-4-(difluoromethylene)cyclohex-1-ene-1-carboxylic acid]
Ki (GABA-AT): > 2490 µM
kinact (GABA-AT): > 0.00367 s⁻¹
kinact/KI (GABA-AT; [8]): 1.45 M⁻¹ s⁻¹
Ki (hOAT [7]): 98 ± 14 µM
kinact (hOAT [7]): 0.0009 s⁻¹
kinact/KI (hOAT [7]): 9.17 M⁻¹ s⁻¹

More lines, now with the values ahead:

partition ratio (hOAT [2]): 0.6
AUC(0-inf) (in vivo PK profiles; in vivo, iv, 10 mg/kg): 2.49 µg·h/mL
AUC(0-t) (in vivo PK profiles; in vivo, iv, 10 mg/kg): 2.47 µg·h/mL
clearance (in vivo PK profiles; in vivo, iv, 10 mg/kg): 4.01 L/h/kg
half-life (in vivo PK profiles; in vivo, iv, 10 mg/kg): 9.6 min
Cmax (in vivo PK profiles; in vivo, iv, 10 mg/kg): 14.8 µg/mL
Vd (in vivo PK profiles; in vivo, iv, 10 mg/kg, read-out: VSS): 0.64 L/kg
AUC(0-inf) (in vivo PK profiles; in vivo, po, 30 mg/kg): 4.33 µg·h/mL
AUC(0-t) (in vivo PK profiles; in vivo, po, 30 mg/kg): 4.26 µg·h/mL
bioavailability (in vivo PK profiles; in vivo, po, 30 mg/kg): 58%
Cmax (in vivo PK profiles; in vivo, po, 30 mg/kg): 3.43 µg/mL
Tmax (in vivo PK profiles; in vivo, po, 30 mg/kg, read-out: Tmax): 15 min
Kp at 0.25 h (in vivo PK profiles; in vivo, IV, 10 mg/kg): 0.05
Kp at 0.25 h (in vivo PK profiles; in vivo, PO, 30 mg/kg): 0.01
DMPK properties (in vivo PK profiles; preliminary assessment): favorable DMPK properties
inhibitory activities against Ala-AT [3]: little or no inhibitory activities
Ki (GABA-AT): > 1240 µM
kinact (GABA-AT): > 0.006 s⁻¹
kinact/KI (GABA-AT; read-out: kinact/KI (converted)): 4.83 M⁻¹ s⁻¹
kinact/KI (GABA-AT; values marked b from the slope of kobs vs [I]): 0.29 ± 0.01^b mM^−1min^−1
F^− Release (hOAT [4]; with α-KG): 3.95 µM
Fluoride ions released per active site (hOAT [4]; with α-KG): 2.95 equiv
F^− Release (hOAT [4]; without α-KG): 3.57 µM
Fluoride ions released per active site (hOAT [4]; without α-KG): 2.66 equiv
return of enzyme activity on dialysis (hOAT [5]): no enzyme activity recovered
inhibitory activities against Asp-AT [6]: little or no inhibitory activities
Ki (hOAT [7]): 12 ± 2 µM
kinact (hOAT [7]): 0.00323 s⁻¹
kinact/KI (hOAT [7]): 270 M⁻¹ s⁻¹
times more efficient/potent as an inactivator of hOAT than the comparator (hOAT [7]; versus 10 (b129 prints 7), by kinact/KI): 18.6
Compound: N[C@H]1C=C(C(=O)O)CCC1=C(F)F [Compound 14, (S)-3-Amino-4-(difluoromethylene)cyclohex-1-ene-1-carboxylic acid]

Ki (GABA-AT): 1310 ± 400 µM
kinact (GABA-AT): 0.000417 s⁻¹
kinact/KI (GABA-AT; [8]): 0.317 M⁻¹ s⁻¹
Ki (hOAT [7]): 1270 ± 200 µM
kinact (hOAT [7]): 0.00193 s⁻¹
kinact/KI (hOAT [7]): 1.52 M⁻¹ s⁻¹
Compound: N[C@H]1C[C@@H](C(=O)O)CCC1=C(F)F [Compound 12, (1S,3S)-3-amino-4-(difluoromethylene)cyclohexane-1-carboxylic acid]
